The results in this text go back to patent US20230023559A1, “ARYLMETHYLENE HETEROCYCLIC COMPOUNDS AS KV1.3 POTASSIUM SHAKER CHANNEL BLOCKERS” (D. E. Shaw Research, LLC, priority 2019, published 2023).

In this test the target is T1, Kv1.3 potassium channel (Homo sapiens, UniProt P22001).
T1 construct: expressed in transfected cells
T1 sequence (P22001 whole entry): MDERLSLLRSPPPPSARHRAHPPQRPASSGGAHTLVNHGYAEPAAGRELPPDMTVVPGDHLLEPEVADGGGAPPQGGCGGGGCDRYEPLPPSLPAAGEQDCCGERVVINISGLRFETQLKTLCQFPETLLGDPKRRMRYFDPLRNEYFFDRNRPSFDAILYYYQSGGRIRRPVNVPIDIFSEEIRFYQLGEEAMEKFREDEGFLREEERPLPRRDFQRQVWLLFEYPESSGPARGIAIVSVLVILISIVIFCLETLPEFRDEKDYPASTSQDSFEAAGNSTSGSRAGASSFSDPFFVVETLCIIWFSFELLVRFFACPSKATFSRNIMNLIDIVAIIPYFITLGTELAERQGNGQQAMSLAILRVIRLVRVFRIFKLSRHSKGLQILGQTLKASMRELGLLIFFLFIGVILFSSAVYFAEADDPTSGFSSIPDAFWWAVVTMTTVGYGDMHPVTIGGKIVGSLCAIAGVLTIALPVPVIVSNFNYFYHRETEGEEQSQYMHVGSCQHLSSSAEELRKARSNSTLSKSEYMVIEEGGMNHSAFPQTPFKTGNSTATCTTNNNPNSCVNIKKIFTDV
The test is described as follows: Kv1.3 potassium channel blocker activity, automated whole-cell patch clamp (Patchliner). Type of test: cell-based. Particulars: CHO-K1 cells stably expressing Kv1.3; whole cell current inhibition; read-out: Kv1.3_IC50. The procedure, abridged:
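Peak-current block was recorded on stable Kv1.3 CHO-K1 cells by automated patch clamp, stepping from a −90 mV holding potential to +40 mV for 100 ms at 0.1 Hz with 10 s breaks between trains. Online P/4 leak subtraction, 10 kHz sampling; compound exposure under 10 s per train.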
With `N[C@@H](c1cc(Cl)ccc1O)C1CCN(C(=O)[C@H](O)CO)CC1` [Compound 295, (2R)-1-[4-[(R)-amino(5-chloro-2-hydroxyphenyl)methyl]piperidin-1-yl]-2,3-dihydroxypropan-1-one], the IC50 is < 10 µM.
In the case of `NC(c1cc(Cl)c(Cl)cc1O)C1CCN(C(=O)C(F)(F)F)CC1` (stereo not drawn) [Compound 77, 1-[4-[amino(4,5-dichloro-2-hydroxyphenyl)methyl]piperidin-1-yl]-2,2,2-trifluoroethan-1-one Trifluoroacetic Acid], the IC50 is < 10 µM.
Take `N[C@@H](c1cc(Cl)c(Cl)cc1O)[C@@H]1CCN(C(=O)[C@H](O)CO)C1` [Compound 311, (2R)-1-[(3R)-3-[(R)-amino(4,5-dichloro-2-hydroxyphenyl)methyl]pyrrolidin-1-yl]-2,3-dihydroxypropan-1-one]: the IC50 was < 10 µM.
As for `Cc1cc(O)c([C@H](N)C2CCN(C(=O)c3ccc4c(c3)CC(=O)N4)CC2)cc1Cl` [Compound 267, 5-[4-[(R)-amino (5-chloro-2-hydroxy-4-methylphenyl)methyl]piperidine-1-carbonyl]-1,3-dihydroindol-2-one trifluoroacetic acid], the half-maximal inhibitory concentration (IC50) is < 0.5 µM.
For the compound `CC(C)(N)C(=O)N1CCC([C@@H](N)c2cc(Cl)c(Cl)cc2O)CC1` [Compound 90, (R)-2-amino-1-(4-(amino(4,5-dichloro-2-hydroxyphenyl)methyl)piperidin-1-yl)-2-methylpropan-1-one trifluoroacetic acid], the 50% inhibitory concentration (IC50) is < 0.5 µM.
In the case of `CN(C)C(=O)CN1CCC(C(N)c2cc(Cl)c(Cl)cc2O)CC1` (stereo not drawn) [Compound 55, 2-[4-[amino(4,5-dichloro-2-hydroxyphenyl)methyl]piperidin-1-yl]-N,N-dimethylacetamide], the concentration for half-maximal inhibition (IC50) is < 10 µM.
Turning to `NC(c1c(O)ccc(Cl)c1Cl)C1CCNCC1` (stereo not drawn) [Compound 86, 2-[amino(piperidin-4-yl)methyl]-3,4-dichlorophenol Bis(Trifluoroacetic Acid)], the IC50 is < 30 µM.
In the case of `CC1(C)C[C@H]([C@H](N)c2cc(Cl)c(Cl)cc2O)CCN1` (single isomer, unassigned; diastereoisomer 2) [Compound 73, 2-(amino(2,2-dimethylpiperidin-4-yl)methyl)-4,5-dichlorophenol Trifluoroacetic Acid Diastereoisomer 2] it was < 10 µM; in that of `NC(c1cc(Cl)c(Cl)cc1O)[C@@H]1C[C@@H]2CN(C(=O)[C@H](O)CO)C[C@@H]2C1` (stereo partly drawn) [Compound 225, (2R)-1-((3aR,5R,6aS)-5-(amino(4,5-dichloro-2-hydroxyphenyl)methyl)hexahydrocyclopenta[c]pyrrol-2 (1H)-yl)-2,3-dihydroxypropan-1-one], < 10 µM.
For `N[C@@H](c1cc(Cl)c(Cl)cc1O)[C@@H]1CCCN(C(=O)[C@H](O)CO)C1` [Compound 329, (2R)-1-[(3R)-3-[(R)-amino(4,5-dichloro-2-hydroxyphenyl)methyl]piperidin-1-yl]-2,3-dihydroxypropan-1-one Trifluoroacetic Acid], the IC50 is < 10 µM.
In the case of `Cc1cc(O)c([C@H](N)C2CCN(C(=O)c3cc(Cl)c(=O)n(C)c3)CC2)cc1Cl` [Compound 270, 5-[4-[(R)-amino (5-chloro-2-hydroxy-4-methylphenyl)methyl]piperidine-1-carbonyl]-3-chloro-1-methyl-pyridin-2-one trifluoroacetic acid] it was < 0.5 µM; in that of `CN[C@H](c1cc(Cl)c(Cl)cc1O)C1CCN(C(=O)[C@H](O)CO)CC1` (single isomer, unassigned) [Compound 336], < 10 µM; in that of `CC[C@@H](N)C(=O)N1CCC([C@@H](N)c2cc(Cl)c(Cl)cc2O)CC1` [Compound 88, (R)-2-amino-1-(4-((R)-amino(4,5-dichloro-2-hydroxyphenyl)methyl)piperidin-1-yl)butan-1-one trifluoroacetic acid], < 0.5 µM.
As for `Cc1[nH]c(=O)ccc1C(=O)N1CCC([C@@H](N)c2cc(Cl)c(Cl)cc2O)CC1` [Compound 230, (R)-5-(4-(amino(4,5-dichloro-2-hydroxyphenyl)methyl)piperidine-1-carbonyl)-6-methylpyridin-2(1H)-one], the figure is < 10 µM; as for `OCC(c1cc(Cl)c(Cl)cc1O)C1CCNCC1` (stereo not drawn) [Compound 5, 4,5-dichloro-2-[2-hydroxy-1-(piperidin-4-yl)ethyl]phenol], < 10 µM; as for `CO[C@H](CO)C(=O)N1CCC([C@@H](N)c2cc(Cl)c(C)cc2O)CC1` [Compound 250, (2R)-1-[4-[(R)-amino(5-chloro-2-hydroxy-4-methylphenyl)methyl]piperidin-1-yl]-3-hydroxy-2-methoxypropan-1-one trifluoroacetic acid], < 0.5 µM.
Regarding `N[C@@H](c1cc(Cl)c(Cl)cc1O)[C@H]1CCCN(C(=O)[C@H](O)CO)CC1` (single isomer, unassigned; isomer 2) [Compound 334], the 50% inhibitory concentration (IC50) was < 10 µM.
As to `CN1C[C@@H](C(=O)N2CCC([C@@H](N)c3cc(Cl)c(Cl)cc3O)CC2)OCC1=O` (single isomer, unassigned; isomer 2) [Compound 278], the 50% inhibitory concentration (IC50) was < 10 µM.
`N[C@H](c1cc(Cl)c(Cl)cc1O)C1CC2CC1CN2C(=O)[C@H](O)CO` (stereo partly drawn) [Compound 316, (2R)-1-(5-((S)-amino(4,5-dichloro-2-hydroxyphenyl)methyl)-2-azabicyclo[2.2.1]heptan-2-yl)-2,3-dihydroxypropan-1-one Trifluoroacetic Acid]: the 50% inhibitory concentration (IC50) was < 10 µM.
On to `NCC(c1cc(Cl)c(Cl)cc1O)C1CCNCC1` (stereo not drawn) [Compound 8, 2-[2-amino-1-(piperidin-4-yl)ethyl]-4,5-dichlorophenol], for which the concentration for half-maximal inhibition (IC50) was < 10 µM.
Regarding `NC(c1cc(Cl)c(Cl)c(F)c1O)C1CCN(C(=O)[C@H](O)CO)CC1` (stereo partly drawn) [Compound 290, (2R)-1-[4-[amino(4,5-dichloro-3-fluoro-2-hydroxyphenyl)methyl]piperidin-1-yl]-2,3-dihydroxypropan-1-one Trifluoroacetic Acid], the IC50 is < 10 µM.
For the compound `N[C@@H](c1cc(Cl)c(Cl)cc1O)C1CCN(C(=O)c2c[nH]c(=O)[nH]c2=O)CC1` [Compound 252, 5-[4-[(R)-amino(4,5-dichloro-2-hydroxyphenyl)methyl]piperidine-1-carbonyl]-1,3-dihydropyrimidine-2,4-dione formic acid], the IC50 is < 0.5 µM.
Regarding `NC(=O)C(c1cc(Cl)c(Cl)cc1O)C1CCNCC1` (stereo not drawn) [Compound 18, 2-(4,5-dichloro-2-hydroxyphenyl)-2-(piperidin-4-yl)acetamide], the half-maximal inhibitory concentration (IC50) was < 10 µM.
For the compound `N[C@@H](c1cc(Cl)c(Cl)cc1O)C1CCN(C(=O)c2ccc(=O)[nH]n2)CC1` [Compound 253, 6-[4-[(R)-amino(4,5-dichloro-2-hydroxyphenyl)methyl]piperidine-1-carbonyl]-2H-pyridazin-3-one trifluoroacetic acid], the 50% inhibitory concentration (IC50) is < 0.5 µM.
Consider `N[C@@H](c1cc(Cl)c(C(F)F)cc1O)C1CCN(C(=O)[C@H](O)CO)CC1` [Compound 227, (2R)-1-[4-[(R)-amino[5-chloro-4-(difluoromethyl)-2-hydroxyphenyl]methyl]piperidin-1-yl]-2,3-dihydroxypropan-1-one Trifluoroacetic Acid], for which the IC50 is < 0.5 µM.
As for `CC(=O)N1CCC(C(CN)c2cc(Cl)c(Cl)cc2O)CC1` (stereo not drawn) [Compound 28, 1-[4-[2-amino-1-(4,5-dichloro-2-hydroxyphenyl)ethyl]piperidin-1-yl]ethan-1-one], the figure is < 30 µM.
In the case of `Cc1ccc([C@H](N)C2CCN(C(=O)[C@H](O)CO)CC2)c(O)c1` [Compound 294, (2R)-1-[4-[(R)-amino(2-hydroxy-4-methylphenyl)methyl]piperidin-1-yl]-2,3-dihydroxypropan-1-one Trifluoroacetic Acid], the half-maximal inhibitory concentration (IC50) is < 10 µM.
In the case of `NC(c1cc(Cl)c(Cl)cc1O)C1CCN(CC(F)F)CC1` (stereo not drawn) [Compound 62, 2-(amino(1-(2,2-difluoroethyl)piperidin-4-yl)methyl)-4,5-dichlorophenol Trifluoroacetic Acid] it was < 10 µM; in that of `N[C@H](c1cc(Cl)c(Cl)cc1O)C1CCNCC1` (single isomer, unassigned) [Compound 15, Trifluoroacetic Acid], < 10 µM.
In the case of `CC(C)C[C@@H](N)C(=O)N1CCC([C@@H](N)c2cc(Cl)c(Cl)cc2O)CC1` [Compound 94, (R)-2-amino-1-(4-((R)-amino(4,5-dichloro-2-hydroxyphenyl)methyl)piperidin-1-yl)-4-methylpentan-1-one trifluoroacetic acid], the concentration for half-maximal inhibition (IC50) was < 0.5 µM.
On to `O=C([C@H]1CCNC1)N1CCC[C@@H]([C@@H](O)c2c(O)ccc(Cl)c2Cl)CC1` (single isomer, unassigned; isomer 3) [Compound 323], for which the IC50 was < 10 µM.
`O=C([C@H]1CCNC1)N1CCC[C@@H]([C@H](O)c2c(O)ccc(Cl)c2Cl)CC1` (single isomer, unassigned; isomer 1) [Compound 322]: the IC50 is < 10 µM.
In the case of `CN1CCC(C(NC(=O)C(F)(F)F)c2cc(Cl)c(Cl)cc2O)CC1` (stereo not drawn) [Compound 14, N-[(4,5-dichloro-2-hydroxyphenyl)(1-methylpiperidin-4-yl)methyl]-2,2,2-trifluoroacetamide] it was < 10 µM; in that of `CN1CCC([C@@H](O)c2cc(Cl)c(Cl)cc2O)CC1` (single isomer, unassigned) [Compound 24], < 10 µM.
As to `CC1(C(N)c2cc(Cl)c(Cl)cc2O)CCN(C(=O)[C@H](O)CO)CC1` (stereo partly drawn) [Compound 309, (2R)-1-[4-[amino(4,5-dichloro-2-hydroxyphenyl)methyl]-4-methylpiperidin-1-yl]-2,3-dihydroxypropan-1-one Trifluoroacetic Acid], the IC50 is < 10 µM.
In the case of `CS(=O)(=O)N1CCC(C(N)c2cc(Cl)c(Cl)cc2O)CC1` (stereo not drawn) [Compound 71, 2-[amino(1-methanesulfonylpiperidin-4-yl)methyl]-4,5-dichlorophenol Trifluoroacetic Acid] it was < 10 µM.
